# How the values were obtained:
# Assay type in all cases: cell-based
# Morganella morganii 932 = test: MIC, agar serial dilution, Morganella morganii 932; details: Iso-Sensitest agar, 37° C., about 20 hours
# Protocol: (§1) The minimum inhibitory concentrations (MIC) were determined by means of serial dilution methods on Iso-Sensitest agar (Oxoid). For each substance to be tested, a series of agar plates was prepared which contained concentrations of the active compound which in each case decreased by a doubling dilution. The agar plates were inoculated with a Multipoint inoculator (Denley). For the inoculation, overnight cultures of the pathogens were used which had previously been diluted so that each inoculation spot contained about 10^4 colony-forming particles. The inoculated agar plates were incubated at 37° C. and the organism growth was recorded after about 20 hours. The MIC value (μg/ml) indicates the lowest concentration of active compound at which no growth was detected with the naked eye.
# (§2) In the table below, the MIC values of some of the compounds according to the invention are listed in comparison with 1-cyclopropyl-6,8-difluoro-1,4-dihydro-7-(cis-2-oxa-5,8-diazabicyclo[4.3.0]non-8-yl)-4-oxo-3-quinoline-carboxylic acid hydrochloride (reference example A) and 8-chloro-1-cyclopropyl-6-fluoro-1,4-dihydro-7-(cis-2-oxa-5,8-diazabicyclo[4.3.0]non-8-yl)-4-oxo-3-quinoline-carboxylic acid hydrochloride (reference example B).
# [1] = test system: Klebsiella pneumoniae 8085; test: MIC, agar serial dilution, Klebsiella pneumoniae 8085; details: Iso-Sensitest agar, 37° C., about 20 hours
# Protocol: as §1, §2
# Escherichia coli 455/7 = test: MIC, agar serial dilution, Escherichia coli 455/7; details: Iso-Sensitest agar, 37° C., about 20 hours
# Protocol: as §1, §2
# [2] = test system: Enterobacter aerog. ICB 5240; test: MIC, agar serial dilution, Enterobacter aerog. ICB 5240; details: Iso-Sensitest agar, 37° C., about 20 hours
# Protocol: as §1, §2
# [3] = test system: Staphylococcus aureus 1756; test: MIC, agar serial dilution, Staphylococcus aureus 1756; details: Iso-Sensitest agar, 37° C., about 20 hours
# Protocol: as §1, §2
# [4] = test system: Enterobacter cloacae 2427; test: MIC, agar serial dilution, Enterobacter cloacae 2427; details: Iso-Sensitest agar, 37° C., about 20 hours
# Protocol: as §1, §2
# [5] = test system: Staphylococcus aureus ICB 25701; test: MIC, agar serial dilution, Staphylococcus aureus ICB 25701; details: ICB25701, Iso-Sensitest agar, 37° C., about 20 hours
# Protocol: as §1, §2
# Micrococcus luteus 9341 = test: MIC, agar serial dilution, Micrococcus luteus 9341; details: Iso-Sensitest agar, 37° C., about 20 hours
# Protocol: as §1, §2
# Providencia sp. 12012 = test: MIC, agar serial dilution, Providencia sp. 12012; details: Iso-Sensitest agar, 37° C., about 20 hours
# Protocol: as §1, §2
# [6] = test system: Staphylococcus aureus 133; test: MIC, agar serial dilution, Staphylococcus aureus 133; details: Iso-Sensitest agar, 37° C., about 20 hours
# Protocol: as §1, §2
# [7] = test system: Enterococcus faecalis 27101; test: MIC, agar serial dilution, Enterococcus faecalis 27101; details: Iso-Sensitest agar, 37° C., about 20 hours
# Protocol: as §1, §2
# [8] = test system: Pseudomonas aeruginosa ICB 308029; test: MIC, agar serial dilution, Pseudomonas aeruginosa ICB 308029; details: ICB308029, Iso-Sensitest agar, 37° C., about 20 hours
# Protocol: as §1, §2
# [9] = test system: Enterococcus faecalis 9790; test: MIC, agar serial dilution, Enterococcus faecalis 9790; details: Iso-Sensitest agar, 37° C., about 20 hours
# Protocol: as §1, §2
structure (smiles),measurement,setting,value
"NCC12CN(c3c(F)cc4c(=O)c(C(=O)O)cn(C5CC5)c4c3Cl)CC1CCO2.O=C(O)C(F)(F)F (stereo not shown) [Example 2B, 7-(1-aminomethyl-2-oxa-7-aza-bicyclo[3.3.0]oct-7-yl)-8-chloro-1-cyclopropyl-6-fluoro-1,4-dihydro-4-oxo-3-quinolinecarboxylic acid trifluoroacetate]",MIC,Morganella morganii 932,0.03 µg/mL
same,MIC,[1],0.03 µg/mL
same,MIC,Escherichia coli 455/7,1 µg/mL
same,MIC,[2],8 µg/mL
same,MIC,[3],0.0039 µg/mL
same,MIC,[4],0.06 µg/mL
same,MIC,[5],0.25 µg/mL
same,MIC,Micrococcus luteus 9341,0.125 µg/mL
same,MIC,Providencia sp. 12012,0.03 µg/mL
same,MIC,[6],0.015 µg/mL
same,MIC,[7],0.03 µg/mL
same,MIC,[8],32 µg/mL
same,MIC,[9],0.06 µg/mL
"Cl.O=C(O)c1cn(C2CC2)c2c(Cl)c(N3C[C@@H]4NCCO[C@@H]4C3)c(F)cc2c1=O (relative stereo) [B, 8-chloro-1-cyclopropyl-6-fluoro-1,4-dihydro-7-(cis-2-oxa-5,8-diazabicyclo[4.3.0]non-8-yl)-4-oxo-3-quinoline-carboxylic acid hydrochloride]",MIC,Morganella morganii 932,0.06 µg/mL
same,MIC,[1],0.06 µg/mL
same,MIC,Escherichia coli 455/7,2 µg/mL
same,MIC,[2],16 µg/mL
same,MIC,[3],0.015 µg/mL
same,MIC,[4],0.25 µg/mL
same,MIC,[5],0.5 µg/mL
same,MIC,Micrococcus luteus 9341,0.25 µg/mL
same,MIC,Providencia sp. 12012,0.06 µg/mL
same,MIC,[6],0.03 µg/mL
same,MIC,[7],0.125 µg/mL
same,MIC,[8],64 µg/mL
same,MIC,[9],0.125 µg/mL
"Cl.NCC12CN(c3c(F)cc4c(=O)c(C(=O)O)cn(C5CC5)c4c3F)CC1CCO2 (stereo not shown) [Example 1B, 7-(1-aminomethyl-2-oxa-7-aza-bicyclo[3.3.0]oct-7-yl) -1-cyclopropyl-6,8-difluoro-1,4-dihydro-4-oxo-3-quinolinecarboxylic acid hydrochloride]",MIC,Morganella morganii 932,0.03 µg/mL
same,MIC,[1],0.06 µg/mL
same,MIC,Escherichia coli 455/7,2 µg/mL
same,MIC,[2],8 µg/mL
same,MIC,[3],≤ 0.015 µg/mL
same,MIC,[4],0.06 µg/mL
same,MIC,[5],1 µg/mL
same,MIC,Micrococcus luteus 9341,0.25 µg/mL
same,MIC,Providencia sp. 12012,0.06 µg/mL
same,MIC,[6],0.06 µg/mL
same,MIC,[7],0.06 µg/mL
same,MIC,[8],16 µg/mL
same,MIC,[9],0.125 µg/mL
"Cl.O=C(O)c1cn(C2CC2)c2c(F)c(N3C[C@@H]4NCCO[C@@H]4C3)c(F)cc2c1=O (relative stereo) [A, 1-cyclopropyl-6,8-difluoro-1,4-dihydro-7-(cis-2-oxa-5,8-diazabicyclo[4.3.0]non-8-yl)-4-oxo-3-quinoline-carboxylic acid hydrochloride]",MIC,Morganella morganii 932,0.125 µg/mL
same,MIC,[1],0.06 µg/mL
same,MIC,Escherichia coli 455/7,4 µg/mL
same,MIC,[2],32 µg/mL
same,MIC,[3],0.06 µg/mL
same,MIC,[4],0.125 µg/mL
same,MIC,[5],2 µg/mL
same,MIC,Micrococcus luteus 9341,0.5 µg/mL
same,MIC,Providencia sp. 12012,0.125 µg/mL
same,MIC,[6],0.06 µg/mL
same,MIC,[7],0.25 µg/mL
same,MIC,[8],64 µg/mL
same,MIC,[9],0.25 µg/mL
